Experimental data reported in patent publication US20140213558A1, “TREATMENT OF INFLAMMATORY DISEASE OR DISORDER AND COMPOSITIONS THEREFOR” (CREDE OILS (PTY) LTD, priority 2011, published 2014).

Assay: Comparison of pure TQ with Nigella sativa oil
Details: administration of pure TQ
Method: Nevertheless, some embodiments of the invention may include N. sativa oil and/or its essential oil, either as the sole or primary active or in combination with EPA and/or GLA. […] Thus, N. sativa essential oil may provide a therapeutic or prophylactic effect in some embodiments of the invention, particularly in those embodiments in which one or more other actives (e.g., EPA, GLA, etc.) are also administered. Similarly, embodiments of the invention may include derivatives and/or precursors of TQ, including polymers of TQ.

CC1=CC(=O)C(C(C)C)=CC1=O [TQ, 2-isopropyl-5-methylbenzo-1,4-quinone]
effectiveness relative to Nigella sativa oil: more effective than the administration of Nigella sativa oil
